Test results taken from ChEMBL document CHEMBL1201862, “PubChem BioAssay data set” (2004).
The source made the active and inactive calls.

Tests used:
[1] = toxicity toward HepG2 liver cells – cell-based, plate reader, cherry-pick, antagonist series, cytotoxicity control, dose response (AID 743416); assay type: functional
[2] = blockade of melanocortin 4 receptor signaling – cell-based, plate reader, cherry pick, counter-screen for LGR2 antagonist project, dose response (AID 743444); assay type: functional;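 further: transfected HEK 293 cells stimulated with alpha-MSH peptide; potency of inhibitors of the alpha-MSH evoked signal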
[3] = viability loss in HEK293 cells – cell-based, plate reader, cherry-picked samples, cytotoxicity control, dose response (AID 743446); assay type: functional
Estrogen receptor = biological target: T1, Estrogen receptor (Homo sapiens, UniProt P03372); assay: ERα coactivator recruitment enhancers – biochemical, TR-FRET, ERα LBD, dose response (AID 737)
T1 sequence (P03372 whole entry): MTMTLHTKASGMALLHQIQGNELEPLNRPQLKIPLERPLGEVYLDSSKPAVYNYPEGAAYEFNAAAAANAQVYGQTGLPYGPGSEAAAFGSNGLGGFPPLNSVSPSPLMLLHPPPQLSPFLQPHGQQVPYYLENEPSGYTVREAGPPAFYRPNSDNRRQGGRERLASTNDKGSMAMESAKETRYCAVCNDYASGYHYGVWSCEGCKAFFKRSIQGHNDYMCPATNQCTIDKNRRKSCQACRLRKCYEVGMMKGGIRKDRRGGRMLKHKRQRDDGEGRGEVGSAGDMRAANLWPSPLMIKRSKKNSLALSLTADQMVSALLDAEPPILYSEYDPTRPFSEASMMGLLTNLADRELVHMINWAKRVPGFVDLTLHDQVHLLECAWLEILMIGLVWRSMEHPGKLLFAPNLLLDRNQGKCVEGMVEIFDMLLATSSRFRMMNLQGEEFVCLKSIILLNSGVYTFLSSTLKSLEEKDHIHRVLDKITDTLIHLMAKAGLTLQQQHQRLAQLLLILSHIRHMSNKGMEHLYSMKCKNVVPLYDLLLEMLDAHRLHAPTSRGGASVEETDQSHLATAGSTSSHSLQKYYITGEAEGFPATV

[4] = blockers of bursicon-stimulated LGR2 cAMP reporter – cell-based, HEK293, CRE-luciferase reporter, cherry pick, set 2, dose response (AID 743343); assay type: functional;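 further: transfected cells were stimulated with diluted bursicon conditioned medium after compound addition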
[5] = Luminescence Cell-Based Dose Response HTS to Identify Inhibitors of 5'UTR Stem-Loop Driven Prion Protein mRNA Translation in H4 Neuroglioblastoma Cells. [Related pubchem assays: 1827 (Project Summary), 1813 (Primary HTS)]; assay type: functional
Wee1-like protein kinase = Wee1-like protein kinase (Homo sapiens, UniProt P30291); assay: Dose Response Cell-based Assay for Inhibitors of Wee1 Degradation. [Related pubchem assays: 1410, 1321 ]; assay type: functional
[6] = biological target: G2/mitotic-specific cyclin-B1 (Homo sapiens, UniProt P14635); assay: Counterscreen assay for inhibitors of Wee1 degradation: dose response cell-based assay to identify inhibitors of cyclin B degradation. [Related pubchem assays: 1410, 1321 ]; assay type: functional
Cysteine protease ATG4B = biological target: T2, Cysteine protease ATG4B (Homo sapiens, UniProt Q9Y4P1); assay type: functional;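 further: Fluorescence-based dose-response confirmation assay measuring inhibition of ATG4B activity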
T2 sequence (Q9Y4P1 whole entry): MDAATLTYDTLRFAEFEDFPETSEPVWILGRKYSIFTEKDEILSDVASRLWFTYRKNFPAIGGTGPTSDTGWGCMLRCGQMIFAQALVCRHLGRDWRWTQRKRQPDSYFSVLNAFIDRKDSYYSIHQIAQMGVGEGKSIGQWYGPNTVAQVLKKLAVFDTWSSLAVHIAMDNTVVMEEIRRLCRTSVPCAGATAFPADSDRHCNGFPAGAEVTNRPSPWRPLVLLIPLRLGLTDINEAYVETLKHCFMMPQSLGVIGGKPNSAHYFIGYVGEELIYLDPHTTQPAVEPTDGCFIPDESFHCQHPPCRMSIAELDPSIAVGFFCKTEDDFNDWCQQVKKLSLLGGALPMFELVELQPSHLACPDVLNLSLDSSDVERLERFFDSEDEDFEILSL

[7] = alpha-synuclein stem-loop luciferase translation blockers – H4 neuroglioma cells, luminescence, confirmation (AID 1988); assay type: functional, cell-based
[8] = luciferase reporter signal suppression in cells – H4 neuroglioma cells, luminescence, dose response (AID 1990); assay type: functional, cell-based
Phospholipase A2 = Phospholipase A2 (Homo sapiens, UniProt P04054); assay type: functional;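 further: confirmatory dose-response counterscreen on phospholipase A2, testing hits that came from an ultra-high-throughput screen for ATG4B inhibitors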
Procathepsin L = Procathepsin L (Homo sapiens, UniProt P07711)
Cytochrome P450 3A4 = Cytochrome P450 3A4 (Homo sapiens, UniProt P08684); conditions: Potency;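 further: confirmatory qHTS run detecting inhibitors and substrates of CYP3A4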
Aspartyl aminopeptidase = Aspartyl aminopeptidase (Plasmodium falciparum 3D7, UniProt Q8I2J3)
Aspartyl aminopeptidase, sequence (Q8I2J3 whole entry): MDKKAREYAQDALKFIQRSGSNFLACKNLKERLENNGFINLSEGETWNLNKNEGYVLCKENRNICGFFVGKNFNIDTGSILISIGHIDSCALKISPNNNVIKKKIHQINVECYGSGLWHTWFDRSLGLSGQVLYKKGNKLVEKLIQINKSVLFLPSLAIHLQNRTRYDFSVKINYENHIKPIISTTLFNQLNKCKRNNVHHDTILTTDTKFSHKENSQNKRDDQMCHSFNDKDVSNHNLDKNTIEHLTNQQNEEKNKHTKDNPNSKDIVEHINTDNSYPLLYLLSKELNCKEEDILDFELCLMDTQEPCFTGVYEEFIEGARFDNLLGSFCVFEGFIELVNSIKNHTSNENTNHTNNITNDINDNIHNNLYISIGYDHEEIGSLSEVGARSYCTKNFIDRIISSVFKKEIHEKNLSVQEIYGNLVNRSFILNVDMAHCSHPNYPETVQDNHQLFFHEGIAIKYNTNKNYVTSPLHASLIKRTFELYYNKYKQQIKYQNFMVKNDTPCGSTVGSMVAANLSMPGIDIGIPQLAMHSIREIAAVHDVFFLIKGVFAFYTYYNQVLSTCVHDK

G2/mitotic-specific cyclin-B1, sequence (P14635 whole entry): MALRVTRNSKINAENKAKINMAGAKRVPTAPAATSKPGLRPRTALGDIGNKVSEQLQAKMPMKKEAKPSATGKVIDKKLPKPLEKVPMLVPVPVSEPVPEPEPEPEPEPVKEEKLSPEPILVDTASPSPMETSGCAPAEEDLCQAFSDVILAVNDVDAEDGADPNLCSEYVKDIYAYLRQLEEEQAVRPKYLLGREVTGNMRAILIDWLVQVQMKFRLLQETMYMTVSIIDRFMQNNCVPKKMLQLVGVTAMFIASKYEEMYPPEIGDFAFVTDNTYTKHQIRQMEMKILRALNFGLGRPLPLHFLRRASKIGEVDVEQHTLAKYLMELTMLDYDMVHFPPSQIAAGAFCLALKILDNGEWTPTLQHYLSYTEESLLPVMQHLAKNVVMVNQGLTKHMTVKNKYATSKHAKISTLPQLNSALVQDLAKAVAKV
Cytochrome P450 3A4, sequence (P08684 whole entry): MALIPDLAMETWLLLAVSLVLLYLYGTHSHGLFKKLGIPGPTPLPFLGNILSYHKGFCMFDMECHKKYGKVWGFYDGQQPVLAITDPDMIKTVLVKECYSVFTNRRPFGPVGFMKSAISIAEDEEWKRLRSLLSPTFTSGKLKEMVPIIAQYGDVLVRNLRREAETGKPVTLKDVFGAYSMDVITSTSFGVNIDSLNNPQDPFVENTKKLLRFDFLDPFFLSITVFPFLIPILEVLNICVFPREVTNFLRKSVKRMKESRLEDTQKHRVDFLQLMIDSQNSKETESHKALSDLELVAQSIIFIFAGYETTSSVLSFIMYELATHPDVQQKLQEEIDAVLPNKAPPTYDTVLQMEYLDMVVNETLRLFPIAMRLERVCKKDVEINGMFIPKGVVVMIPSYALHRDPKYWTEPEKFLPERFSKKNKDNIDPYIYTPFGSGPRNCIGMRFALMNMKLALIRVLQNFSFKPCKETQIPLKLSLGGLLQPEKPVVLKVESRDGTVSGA
Wee1-like protein kinase, sequence (P30291 whole entry): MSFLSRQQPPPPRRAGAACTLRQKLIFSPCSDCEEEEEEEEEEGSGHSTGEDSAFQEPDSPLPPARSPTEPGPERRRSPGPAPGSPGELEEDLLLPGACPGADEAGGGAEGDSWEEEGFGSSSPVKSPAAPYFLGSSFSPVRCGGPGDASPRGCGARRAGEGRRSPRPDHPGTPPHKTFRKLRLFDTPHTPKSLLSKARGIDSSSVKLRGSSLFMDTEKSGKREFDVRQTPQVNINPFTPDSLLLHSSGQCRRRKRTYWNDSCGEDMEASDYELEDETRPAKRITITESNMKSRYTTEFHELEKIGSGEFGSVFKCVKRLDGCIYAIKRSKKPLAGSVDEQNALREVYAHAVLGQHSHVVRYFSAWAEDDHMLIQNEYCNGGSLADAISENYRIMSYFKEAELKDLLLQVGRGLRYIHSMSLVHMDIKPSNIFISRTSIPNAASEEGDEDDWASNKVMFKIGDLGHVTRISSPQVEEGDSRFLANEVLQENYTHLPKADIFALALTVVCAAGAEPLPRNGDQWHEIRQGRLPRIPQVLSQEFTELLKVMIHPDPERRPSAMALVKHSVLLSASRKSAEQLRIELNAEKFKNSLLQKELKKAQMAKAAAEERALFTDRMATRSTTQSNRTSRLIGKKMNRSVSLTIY
Phospholipase A2, sequence (P04054 whole entry): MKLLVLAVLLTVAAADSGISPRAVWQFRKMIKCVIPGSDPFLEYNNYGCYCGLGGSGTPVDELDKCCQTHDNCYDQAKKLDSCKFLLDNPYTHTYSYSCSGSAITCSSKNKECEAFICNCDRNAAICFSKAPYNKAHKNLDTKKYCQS
Procathepsin L, sequence (P07711 whole entry): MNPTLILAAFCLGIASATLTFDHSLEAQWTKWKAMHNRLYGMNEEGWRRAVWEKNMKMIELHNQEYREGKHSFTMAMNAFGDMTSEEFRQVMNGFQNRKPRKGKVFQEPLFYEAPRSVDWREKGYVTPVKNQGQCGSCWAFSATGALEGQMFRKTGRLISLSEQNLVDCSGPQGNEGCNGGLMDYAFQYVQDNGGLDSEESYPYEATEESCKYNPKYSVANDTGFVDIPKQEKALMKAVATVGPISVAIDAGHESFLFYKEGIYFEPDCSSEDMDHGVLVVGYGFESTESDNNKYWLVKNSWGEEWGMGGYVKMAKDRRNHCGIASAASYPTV

C1COCCO1.O=C(Nc1nc(-c2ccc(S(=O)(=O)N3CCOCC3)cc2)cs1)c1ccccc1
AC50 [1]: 36.7 µM (active) | AC50 [2]: 44.3 µM (active) | AC50 [3]: > 52 µM (inactive) | EC50 (Estrogen receptor): 15.1 µM (active) | AC50 [4]: 42 µM (active)

CCCC1=Nc2cc(C(=O)NCc3ccco3)ccc2Sc2ccccc21
EC50 [5]: 11.4 µM (active) | EC50 (Wee1-like protein kinase): > 49.7 µM (not active) | EC50 [6]: > 49.7 µM (not active) | IC50 (Cysteine protease ATG4B): 15.2 µM (active) | EC50 [7]: 8.6 µM (active) | EC50 [8]: 11.1 µM (inconclusive) | IC50 (Phospholipase A2): 6.93 µM (active)

CC1(C)CC(=O)c2c(oc3cc(O)c(O)cc23)C1
IC50 (Procathepsin L): > 59.6 µM (not active) | AC50 (Cytochrome P450 3A4): 31.6 µM (inconclusive) | IC50 (Aspartyl aminopeptidase): 1.25 µM (active)
